Active and inactive are the calls of the source.
What was measured:
[1] = target: T1, 5-hydroxytryptamine receptor 3A (Homo sapiens) (UniProt P46098); assay: 5-HT3 (h) Ligand binding assay; settings: Compound concentration 10.0 uM
T1 sequence (whole entry): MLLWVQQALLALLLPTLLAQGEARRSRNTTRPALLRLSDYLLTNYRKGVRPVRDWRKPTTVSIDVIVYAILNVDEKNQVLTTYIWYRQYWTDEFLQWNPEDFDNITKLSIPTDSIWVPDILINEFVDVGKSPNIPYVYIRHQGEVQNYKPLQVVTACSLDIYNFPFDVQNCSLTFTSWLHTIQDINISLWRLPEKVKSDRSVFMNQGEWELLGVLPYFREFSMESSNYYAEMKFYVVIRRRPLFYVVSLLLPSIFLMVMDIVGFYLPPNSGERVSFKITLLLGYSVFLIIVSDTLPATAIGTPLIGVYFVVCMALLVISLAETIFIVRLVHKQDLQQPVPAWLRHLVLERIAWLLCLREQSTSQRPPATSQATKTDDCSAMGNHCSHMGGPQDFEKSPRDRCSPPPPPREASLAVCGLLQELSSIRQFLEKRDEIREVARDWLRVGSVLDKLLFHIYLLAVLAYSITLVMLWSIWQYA

[2] = target: Sigma receptor (Homo sapiens) (UniProt Q99720+Q5BJF2); assay: Sigma (non selective) Ligand binding assay; format: protein assay
[3] = target: T2, D(4) dopamine receptor (Homo sapiens) (UniProt P21917); assay: D4.4 (h) Ligand binding assay; settings: Compound concentration 10.0 uM
T2 sequence (whole entry): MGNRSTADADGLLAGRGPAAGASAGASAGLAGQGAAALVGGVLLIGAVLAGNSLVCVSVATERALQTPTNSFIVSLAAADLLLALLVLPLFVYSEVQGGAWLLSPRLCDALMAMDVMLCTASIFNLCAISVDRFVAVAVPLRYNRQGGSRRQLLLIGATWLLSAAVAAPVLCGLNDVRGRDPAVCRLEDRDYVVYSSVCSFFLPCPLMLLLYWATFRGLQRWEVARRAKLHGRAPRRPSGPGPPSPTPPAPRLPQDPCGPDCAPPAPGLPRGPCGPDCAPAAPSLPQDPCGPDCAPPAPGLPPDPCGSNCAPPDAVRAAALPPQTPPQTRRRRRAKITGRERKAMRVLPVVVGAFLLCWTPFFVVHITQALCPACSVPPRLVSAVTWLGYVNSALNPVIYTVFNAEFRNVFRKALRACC

[4] = target: Adenosine receptor A3 (Homo sapiens) (UniProt P0DMS8); assay: A3 (h) Ligand binding assay; settings: Compound concentration 10.0 uM
[5] = target: C-X-C chemokine receptor type 1 (Homo sapiens) (UniProt P25024); assay: IL-8A (h) (CXCR1) Ligand binding assay; settings: Compound concentration 10.0 uM
[6] = target: Calcium/calmodulin-dependent protein kinase type 1B (Homo sapiens, UniProt Q6P2M8); assay: Inhibition of PNCK at compound concentration of 10.0 uM using the ScanMax (DiscoverX)
[7] = target: Type-2 angiotensin II receptor (Homo sapiens) (UniProt P50052); assay: AT2 (h) Ligand binding assay; settings: Compound concentration 10.0 uM
[8] = target: GABA-A receptor; anion channel (Rattus norvegicus) (UniProt O09028+P15431+P18506+P18508+P19969+P20236+P23574+P23576+P28471+P28473+P30191+P62813+P63079+P63138+Q91ZM7+Q9ES14); settings: Compound concentration 10.0 uM
[9] = target: Platelet-derived growth factor receptor (Homo sapiens) (UniProt P09619+P16234); assay: PDGF Ligand binding assay; format: protein-complex assay; settings: Compound concentration 10.0 uM
[10] = target: Adenosine receptor A2a (Homo sapiens) (UniProt P29274); assay: A2a (h) Ligand binding assay; settings: Compound concentration 10.0 uM
[11] = target: Nociceptin receptor (Homo sapiens) (UniProt P41146); assay: ORL-1 (h) Ligand binding assay; settings: Compound concentration 10.0 uM
[12] = target: Substance-K receptor (Homo sapiens) (UniProt P21452); assay: NK2 (h) Ligand binding assay
[13] = Scintillation proximity assay (SPA); parameters: species or system Homo sapiens
[14] = target: Adrenergic receptor alpha-2 (Homo sapiens) (UniProt P08913+P18825+P18089); assay: alpha2 (non-selective) Ligand binding assay; format: protein assay; settings: Compound concentration 10.0 uM
[15] = target: Calcitonin-gene-related peptide receptor, CALCRL/RAMP1 (Homo sapiens) (UniProt O60894+Q16602); assay: CGRP (h) Ligand binding assay; format: protein-complex assay; settings: Compound concentration 10.0 uM
[16] = target: Endothelin-1 receptor (Homo sapiens) (UniProt P25101); assay: ETA (h) Ligand binding assay; settings: Compound concentration 10.0 uM
[17] = target: Cholecystokinin receptor type A (Homo sapiens) (UniProt P32238); assay: CCKA (h) Ligand binding assay; settings: Compound concentration 10.0 uM
[18] = target: Translocator protein (Rattus norvegicus) (UniProt P16257); assay: BZD (peripheral) Ligand binding assay; settings: Compound concentration 10.0 uM
[19] = target: Galanin receptor type 1 (Homo sapiens) (UniProt P47211); assay: GALI (h) Ligand binding assay; settings: Compound concentration 10.0 uM
Ephrin type-A receptor 1 = Ephrin type-A receptor 1 (Homo sapiens, UniProt P21709); assay: Inhibition of EPHA1 at compound concentration of 10.0 uM using the ScanMax (DiscoverX)
[20] = target: GABA-A receptor; anion channel (Homo sapiens) (UniProt P14867+P47870+P18507+P28472+P48169+Q99928+Q9UN88+P34903+O00591+O14764+Q8N1C3+P18505+P78334+P47869+P31644+Q16445); assay: BZD (central) Ligand binding assay; format: protein-complex assay; settings: Compound concentration 10.0 uM
[21] = target: T3, 5-hydroxytryptamine receptor 1A (Homo sapiens) (UniProt P08908); assay: 5-HT1A (h) Ligand binding assay; settings: Compound concentration 10.0 uM
T3 sequence (whole entry): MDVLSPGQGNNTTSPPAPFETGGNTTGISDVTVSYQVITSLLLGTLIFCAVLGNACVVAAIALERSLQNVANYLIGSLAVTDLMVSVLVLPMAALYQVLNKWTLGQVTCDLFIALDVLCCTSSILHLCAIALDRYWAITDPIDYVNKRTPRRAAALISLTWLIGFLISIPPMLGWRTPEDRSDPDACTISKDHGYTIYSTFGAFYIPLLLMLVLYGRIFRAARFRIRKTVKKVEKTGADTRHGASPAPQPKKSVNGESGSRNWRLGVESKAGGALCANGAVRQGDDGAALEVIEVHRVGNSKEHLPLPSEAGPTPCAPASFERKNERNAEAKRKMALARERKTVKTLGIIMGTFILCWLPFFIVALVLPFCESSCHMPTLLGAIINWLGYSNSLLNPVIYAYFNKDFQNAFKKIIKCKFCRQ

[22] = target: Muscarinic acetylcholine receptor M2 (Homo sapiens) (UniProt P08172); settings: Compound concentration 10.0 uM
[23] = target: Cannabinoid receptor 1 (Homo sapiens) (UniProt P21554); assay: CB1 (h) (central) Ligand binding assay
[24] = target: Beta-1 adrenergic receptor (Homo sapiens) (UniProt P08588); assay: beta1 (h) Ligand binding assay; settings: Compound concentration 10.0 uM
[25] = target: D(1B) dopamine receptor (Homo sapiens) (UniProt P21918); settings: Compound concentration 10.0 uM

Cannabinoid receptor 1 (Homo sapiens), sequence (P21554 whole entry): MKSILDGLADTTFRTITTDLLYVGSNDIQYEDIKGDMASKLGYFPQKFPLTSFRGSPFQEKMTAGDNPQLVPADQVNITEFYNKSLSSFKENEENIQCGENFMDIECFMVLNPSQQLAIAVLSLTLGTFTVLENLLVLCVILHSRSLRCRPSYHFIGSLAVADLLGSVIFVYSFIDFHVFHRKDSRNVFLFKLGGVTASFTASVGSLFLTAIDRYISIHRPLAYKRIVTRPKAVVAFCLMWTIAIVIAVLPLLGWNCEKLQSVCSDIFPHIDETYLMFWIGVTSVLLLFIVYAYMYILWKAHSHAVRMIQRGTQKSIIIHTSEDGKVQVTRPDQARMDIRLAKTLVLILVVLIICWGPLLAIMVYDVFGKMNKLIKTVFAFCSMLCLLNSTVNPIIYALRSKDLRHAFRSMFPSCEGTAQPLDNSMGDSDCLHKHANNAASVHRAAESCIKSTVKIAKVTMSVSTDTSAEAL
Sigma receptor (Homo sapiens), sequence (Q5BJF2 whole entry, looked up): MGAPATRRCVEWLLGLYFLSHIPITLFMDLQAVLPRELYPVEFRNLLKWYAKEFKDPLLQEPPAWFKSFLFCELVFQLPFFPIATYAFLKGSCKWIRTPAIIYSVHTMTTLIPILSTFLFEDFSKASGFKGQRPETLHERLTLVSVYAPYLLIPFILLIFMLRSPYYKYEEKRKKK
Sigma receptor (Homo sapiens), sequence (Q99720 whole entry, looked up): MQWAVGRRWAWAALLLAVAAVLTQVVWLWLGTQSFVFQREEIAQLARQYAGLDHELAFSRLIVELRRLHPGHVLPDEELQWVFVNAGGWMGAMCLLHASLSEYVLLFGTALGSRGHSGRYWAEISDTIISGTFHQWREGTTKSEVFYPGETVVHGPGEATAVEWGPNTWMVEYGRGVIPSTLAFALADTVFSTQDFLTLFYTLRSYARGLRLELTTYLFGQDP
Substance-K receptor (Homo sapiens), sequence (P21452 whole entry): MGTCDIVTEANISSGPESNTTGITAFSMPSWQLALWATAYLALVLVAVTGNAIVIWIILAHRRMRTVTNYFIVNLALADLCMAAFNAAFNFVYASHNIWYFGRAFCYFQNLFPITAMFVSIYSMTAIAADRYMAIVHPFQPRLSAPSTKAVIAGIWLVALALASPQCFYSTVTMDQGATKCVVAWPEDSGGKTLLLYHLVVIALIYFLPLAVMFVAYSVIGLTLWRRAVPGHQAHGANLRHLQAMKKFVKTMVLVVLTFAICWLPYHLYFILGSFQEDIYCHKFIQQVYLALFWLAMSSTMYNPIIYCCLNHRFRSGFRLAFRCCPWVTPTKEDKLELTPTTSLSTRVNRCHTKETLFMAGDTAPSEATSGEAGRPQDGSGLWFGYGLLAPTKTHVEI
Adenosine receptor A2a (Homo sapiens), sequence (P29274 whole entry): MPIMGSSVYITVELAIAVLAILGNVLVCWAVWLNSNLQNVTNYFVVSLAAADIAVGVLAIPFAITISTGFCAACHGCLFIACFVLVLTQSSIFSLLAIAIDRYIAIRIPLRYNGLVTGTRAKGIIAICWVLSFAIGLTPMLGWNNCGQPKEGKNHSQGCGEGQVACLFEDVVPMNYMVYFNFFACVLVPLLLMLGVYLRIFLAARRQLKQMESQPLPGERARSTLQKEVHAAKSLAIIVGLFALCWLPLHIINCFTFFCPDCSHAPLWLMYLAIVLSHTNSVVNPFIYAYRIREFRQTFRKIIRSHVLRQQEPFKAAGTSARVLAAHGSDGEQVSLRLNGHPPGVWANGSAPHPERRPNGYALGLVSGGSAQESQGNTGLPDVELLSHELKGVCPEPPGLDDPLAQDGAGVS
Endothelin-1 receptor (Homo sapiens), sequence (P25101 whole entry): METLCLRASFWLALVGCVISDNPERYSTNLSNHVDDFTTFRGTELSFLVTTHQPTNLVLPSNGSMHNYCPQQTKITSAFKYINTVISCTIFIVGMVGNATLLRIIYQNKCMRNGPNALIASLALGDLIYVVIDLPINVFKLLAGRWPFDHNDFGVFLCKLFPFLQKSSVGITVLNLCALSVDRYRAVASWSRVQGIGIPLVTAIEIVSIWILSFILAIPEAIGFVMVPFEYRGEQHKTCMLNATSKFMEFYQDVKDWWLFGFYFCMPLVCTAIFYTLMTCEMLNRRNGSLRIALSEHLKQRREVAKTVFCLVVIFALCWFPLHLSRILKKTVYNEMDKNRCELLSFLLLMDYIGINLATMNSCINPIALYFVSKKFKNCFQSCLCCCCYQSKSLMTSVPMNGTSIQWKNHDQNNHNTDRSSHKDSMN
Adenosine receptor A3 (Homo sapiens), sequence (P0DMS8 whole entry): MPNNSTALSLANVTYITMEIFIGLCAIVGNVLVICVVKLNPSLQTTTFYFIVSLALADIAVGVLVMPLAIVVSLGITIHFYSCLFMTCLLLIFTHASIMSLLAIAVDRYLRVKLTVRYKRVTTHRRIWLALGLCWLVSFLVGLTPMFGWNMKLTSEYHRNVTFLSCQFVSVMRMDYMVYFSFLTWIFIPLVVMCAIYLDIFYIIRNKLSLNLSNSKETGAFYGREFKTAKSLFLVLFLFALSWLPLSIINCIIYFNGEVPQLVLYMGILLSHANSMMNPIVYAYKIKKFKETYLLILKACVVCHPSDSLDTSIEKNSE
Cholecystokinin receptor type A (Homo sapiens), sequence (P32238 whole entry): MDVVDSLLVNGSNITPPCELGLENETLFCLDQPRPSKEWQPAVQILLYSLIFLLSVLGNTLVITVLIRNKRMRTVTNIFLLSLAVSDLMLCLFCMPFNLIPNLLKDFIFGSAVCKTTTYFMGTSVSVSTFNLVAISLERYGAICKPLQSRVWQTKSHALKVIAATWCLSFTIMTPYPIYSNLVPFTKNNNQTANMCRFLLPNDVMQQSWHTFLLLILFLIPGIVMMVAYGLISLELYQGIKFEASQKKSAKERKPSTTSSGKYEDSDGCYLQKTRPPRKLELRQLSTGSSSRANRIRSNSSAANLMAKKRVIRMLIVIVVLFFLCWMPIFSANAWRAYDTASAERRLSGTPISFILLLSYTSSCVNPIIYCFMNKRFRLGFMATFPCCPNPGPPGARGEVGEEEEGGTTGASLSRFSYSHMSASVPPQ
Type-2 angiotensin II receptor (Homo sapiens), sequence (P50052 whole entry): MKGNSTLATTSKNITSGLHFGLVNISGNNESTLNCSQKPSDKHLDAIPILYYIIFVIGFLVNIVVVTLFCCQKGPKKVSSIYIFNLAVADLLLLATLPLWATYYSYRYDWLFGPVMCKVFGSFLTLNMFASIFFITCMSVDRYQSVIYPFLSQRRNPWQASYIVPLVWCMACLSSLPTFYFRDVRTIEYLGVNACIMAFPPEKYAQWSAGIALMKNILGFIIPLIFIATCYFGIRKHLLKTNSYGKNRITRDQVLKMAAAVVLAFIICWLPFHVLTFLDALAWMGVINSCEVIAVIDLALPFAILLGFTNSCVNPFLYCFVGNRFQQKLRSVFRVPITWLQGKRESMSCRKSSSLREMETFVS
Nociceptin receptor (Homo sapiens), sequence (P41146 whole entry): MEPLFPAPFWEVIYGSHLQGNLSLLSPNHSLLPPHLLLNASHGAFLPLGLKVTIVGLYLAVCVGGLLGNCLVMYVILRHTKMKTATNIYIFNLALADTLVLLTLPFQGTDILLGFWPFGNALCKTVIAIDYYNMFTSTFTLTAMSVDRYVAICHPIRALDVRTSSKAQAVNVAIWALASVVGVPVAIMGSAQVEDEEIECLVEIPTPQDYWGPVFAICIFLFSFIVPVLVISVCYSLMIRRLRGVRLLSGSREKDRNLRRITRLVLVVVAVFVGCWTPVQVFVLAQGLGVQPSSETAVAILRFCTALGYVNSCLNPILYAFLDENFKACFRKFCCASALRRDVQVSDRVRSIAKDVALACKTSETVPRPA
Translocator protein (Rattus norvegicus), sequence (P16257 whole entry, looked up): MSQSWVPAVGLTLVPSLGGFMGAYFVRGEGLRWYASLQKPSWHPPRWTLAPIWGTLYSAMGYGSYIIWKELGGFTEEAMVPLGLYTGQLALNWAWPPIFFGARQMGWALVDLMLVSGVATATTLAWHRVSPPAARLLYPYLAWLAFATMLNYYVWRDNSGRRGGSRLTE
Ephrin type-A receptor 1, sequence (P21709 whole entry): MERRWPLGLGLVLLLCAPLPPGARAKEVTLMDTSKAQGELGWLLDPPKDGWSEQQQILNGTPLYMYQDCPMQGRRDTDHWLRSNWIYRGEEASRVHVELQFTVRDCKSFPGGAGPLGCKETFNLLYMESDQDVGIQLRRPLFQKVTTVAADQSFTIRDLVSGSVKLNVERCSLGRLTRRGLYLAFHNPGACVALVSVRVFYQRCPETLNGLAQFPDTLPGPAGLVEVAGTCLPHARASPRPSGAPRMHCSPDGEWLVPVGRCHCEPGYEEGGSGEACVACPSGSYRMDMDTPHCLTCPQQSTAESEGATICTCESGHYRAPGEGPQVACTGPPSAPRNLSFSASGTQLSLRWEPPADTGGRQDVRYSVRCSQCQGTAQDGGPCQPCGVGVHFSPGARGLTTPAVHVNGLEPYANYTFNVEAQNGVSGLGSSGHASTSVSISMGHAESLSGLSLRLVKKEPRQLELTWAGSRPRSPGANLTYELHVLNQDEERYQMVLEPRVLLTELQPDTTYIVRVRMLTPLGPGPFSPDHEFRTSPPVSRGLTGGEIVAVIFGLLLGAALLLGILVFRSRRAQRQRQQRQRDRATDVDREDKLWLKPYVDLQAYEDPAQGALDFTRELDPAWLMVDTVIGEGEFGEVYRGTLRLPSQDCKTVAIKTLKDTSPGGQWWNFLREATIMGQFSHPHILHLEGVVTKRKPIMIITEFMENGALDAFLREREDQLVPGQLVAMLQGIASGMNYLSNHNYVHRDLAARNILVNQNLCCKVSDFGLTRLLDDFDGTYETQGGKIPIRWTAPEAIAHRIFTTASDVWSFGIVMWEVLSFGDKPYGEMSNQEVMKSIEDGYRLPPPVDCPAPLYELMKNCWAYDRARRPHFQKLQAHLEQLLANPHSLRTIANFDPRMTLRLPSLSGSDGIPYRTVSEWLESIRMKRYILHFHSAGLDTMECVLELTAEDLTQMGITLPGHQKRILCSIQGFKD

Cn1cncc1[C@](O)(COc1ccc(C#N)cc1-c1ccc(OC(F)(F)F)cc1)c1ccc(C#N)cc1 [ABT-100]
active: inhibition ([2]; Compound concentration 10.0 uM) 67% | inhibition ([12]; Compound concentration 10.0 uM) 81% | IC50 [13] 0.05 nM | inhibition ([23]; Compound concentration 10.0 uM) 68%
inactive: inhibition [1] 12% | inhibition ([2]; Compound concentration 3.0 uM) 28% | inhibition [3] < 10% | inhibition [4] < 10% | inhibition [5] < 10% | inhibition [7] < 10% | inhibition [8] 6.85% | inhibition [9] < 10% | inhibition [10] < 10% | inhibition [11] < 10% | inhibition ([12]; Compound concentration 3.0 uM) 32% | inhibition [14] < 10% | inhibition [15] < 10% | inhibition [16] < 10% | inhibition [17] < 10% | inhibition [18] 36% | inhibition [19] < 10% | inhibition [20] < 10% | inhibition [21] 18% | inhibition [22] -1.19% | inhibition ([23]; Compound concentration 1.0 uM) 23% | inhibition ([23]; Compound concentration 3.0 uM) 45% | inhibition [24] 22% | inhibition [25] 4.79%
> 10 µM (not active): Kd [6] | Kd (Ephrin type-A receptor 1)
